# Where two headings read alike, the source gives them in different places.
# How the values were obtained:
# [1] = system: PSMA+PC3-PIP and PSMA-PC3-flu flank xenografts; assay: Biodistribution of [125I/211At]2 and 3 with and without co-injection of DCIBzL (Example 6); format: in vivo, athymic mice
# From the text: Final compounds were purified by HPLC.
# [2] = system: PSMA+PC3-PIP and PSMA-PC3-flu flank xenografts
# Description: Final compounds were purified by HPLC. […] Organs were harvested 1, 4, and 24 h post-injection (n=5 per time point).
# [3] = 1-hour, Blocker VK-02-90 0.5 nmole
# [4] = 1-hour, Blocker VK-02-90 1.0 nmole
# [5] = 1-hour, Blocker VK-02-90 5.0 nmole
# [6] = 1-hour, Blocker YC-I-27 0.5 nmole
# [7] = 1-hour, Blocker YC-I-27 1.0 nmole
# [8] = 1-hour, Blocker YC-I-27 5 nmole
# [9] = 4-hr, Blocker VK-02-90 0.5 nmole
# [10] = 4-hr, Blocker VK-02-90 1.0 nmole
compound,measurement,setting,value
O=C([O-])CN1CCN(CC(=O)[O-])CCN(CC(=O)NCCCCC(=O)N(CCCC[C@H](NC(=O)N[C@@H](CCC(=O)O)C(=O)O)C(=O)O)Cc2ccc([125I])cc2)CCN(CC(=O)[O-])CC1.[Lu+3] [[^125I]VK-02-90-Lu],"retention of radioactivity, lacrimal glands (LG)","[1]; 1h, no co-injection",4.1±1.3 % ID/g
same,"retention of radioactivity, salivary glands (SG)","[1]; 1h, no co-injection",1.0±0.3 % ID/g
same,"retention of radioactivity, kidneys (K)","[1]; 4 h, no co-injection",18.2±4.9 % ID/g
same,"retention of radioactivity, kidneys (K)","[1]; 24 h, no co-injection",3.3±1.1 % ID/g
same,Stomach uptake,[1]; @ 1 h,1.8±0.2 % ID/g
same,"retention, K","[1]; @1 h, co-injection of DCIBzL",4.2±1.3 % ID/g
same,"retention, LG","[1]; @1 h, co-injection of DCIBzL",0.5±0.1 % ID/g
same,"retention, SG","[1]; @1 h, co-injection of DCIBzL",3.2±0.7 % ID/g
same,Stomach uptake,[1]; @ 4 h,0.8±0.5 % ID/g
same,Stomach uptake,[1]; @ 24 h,0.1±0.04 % ID/g
same,"Biodistribution, Blood","[2]; 1-hour, Blocker None",1.1 ± 0.1 % injected dose/g
same,"Biodistribution, Flu tumor","[2]; 1-hour, Blocker None",1.0 ± 0.2 % injected dose/g
same,"Biodistribution, Kidneys","[2]; 1-hour, Blocker None",129 ± 15 % injected dose/g
same,"Biodistribution, Lacrimal glands","[2]; 1-hour, Blocker None",2.1 ± 0.9 % injected dose/g
same,"Biodistribution, PIP tumor","[2]; 1-hour, Blocker None",26.0 ± 3.0 % injected dose/g
same,"Biodistribution, Salivary glands","[2]; 1-hour, Blocker None",2.3 ± 0.5 % injected dose/g
same,"Biodistribution, Spleen","[2]; 1-hour, Blocker None",4.3 ± 0.9 % injected dose/g
same,"Biodistribution, Stomach","[2]; 1-hour, Blocker None",1.7 ± 0.3 % injected dose/g
same,"Biodistribution, Blood",[2]; [3],0.4 ± 0.1 % injected dose/g
same,"Biodistribution, Flu tumor",[2]; [3],0.6 ± 0.3 % injected dose/g
same,"Biodistribution, Kidneys",[2]; [3],9.9 ± 2.5 % injected dose/g
same,"Biodistribution, Lacrimal glands",[2]; [3],0.4 ± 0.1 % injected dose/g
same,"Biodistribution, PIP tumor",[2]; [3],36.7 ± 6.8 % injected dose/g
same,"Biodistribution, Salivary glands",[2]; [3],0.2 ± 0.03 % injected dose/g
same,"Biodistribution, Spleen",[2]; [3],1.1 ± 0.4 % injected dose/g
same,"Biodistribution, Stomach",[2]; [3],0.2 ± 0.1 % injected dose/g
same,"Biodistribution, Blood",[2]; [4],0.4 ± 0.1 % injected dose/g
same,"Biodistribution, Flu tumor",[2]; [4],0.5 ± 0.1 % injected dose/g
same,"Biodistribution, Kidneys",[2]; [4],6.5 ± 0.9 % injected dose/g
same,"Biodistribution, Lacrimal glands",[2]; [4],0.4 ± 0.1 % injected dose/g
same,"Biodistribution, PIP tumor",[2]; [4],35.1 ± 9.0 % injected dose/g
same,"Biodistribution, Salivary glands",[2]; [4],0.2 ± 0.06 % injected dose/g
same,"Biodistribution, Spleen",[2]; [4],1.1 ± 0.4 % injected dose/g
same,"Biodistribution, Stomach",[2]; [4],0.2 ± 0.04 % injected dose/g
same,"Biodistribution, Blood",[2]; [5],0.5 ± 0.1 % injected dose/g
same,"Biodistribution, Flu tumor",[2]; [5],0.9 ± 0.3 % injected dose/g
same,"Biodistribution, Kidneys",[2]; [5],4.2 ± 0.5 % injected dose/g
same,"Biodistribution, Lacrimal glands",[2]; [5],0.4 ± 0.03 % injected dose/g
same,"Biodistribution, PIP tumor",[2]; [5],23.5 ± 4.3 % injected dose/g
same,"Biodistribution, Salivary glands",[2]; [5],0.3 ± 0.1 % injected dose/g
same,"Biodistribution, Spleen",[2]; [5],0.7 ± 0.2 % injected dose/g
same,"Biodistribution, Stomach",[2]; [5],0.2 ± 0.06 % injected dose/g
same,"Biodistribution, Blood",[2]; [6],1.1 ± 0.1 % injected dose/g
same,"Biodistribution, Flu tumor",[2]; [6],1.0 ± 0.3 % injected dose/g
same,"Biodistribution, Kidneys",[2]; [6],4.2 ± 1.3 % injected dose/g
same,"Biodistribution, Lacrimal glands",[2]; [6],0.5 ± 0.1 % injected dose/g
same,"Biodistribution, PIP tumor",[2]; [6],41.8 ± 4.2 % injected dose/g
same,"Biodistribution, Salivary glands",[2]; [6],3.2 ± 0.7 % injected dose/g
same,"Biodistribution, Spleen",[2]; [6],0.8 ± 0.2 % injected dose/g
same,"Biodistribution, Stomach",[2]; [6],1.8 ± 0.2 % injected dose/g
same,"Biodistribution, Blood",[2]; [7],1.0 ± 0.1 % injected dose/g
same,"Biodistribution, Flu tumor",[2]; [7],0.8 ± 0.2 % injected dose/g
same,"Biodistribution, Kidneys",[2]; [7],2.4 ± 0.8 % injected dose/g
same,"Biodistribution, Lacrimal glands",[2]; [7],0.6 ± 0.05 % injected dose/g
same,"Biodistribution, PIP tumor",[2]; [7],29.1 ± 2.4 % injected dose/g
same,"Biodistribution, Salivary glands",[2]; [7],2.9 ± 0.4 % injected dose/g
same,"Biodistribution, Spleen",[2]; [7],0.6 ± 0.1 % injected dose/g
same,"Biodistribution, Stomach",[2]; [7],1.8 ± 0.3 % injected dose/g
same,"Biodistribution, Blood",[2]; [8],1.1 ± 0.2 % injected dose/g
same,"Biodistribution, Flu tumor",[2]; [8],0.8 ± 0.2 % injected dose/g
same,"Biodistribution, Kidneys",[2]; [8],2.3 ± 0.7 % injected dose/g
same,"Biodistribution, Lacrimal glands",[2]; [8],1.1 ± 0.6 % injected dose/g
same,"Biodistribution, PIP tumor",[2]; [8],20.1 ± 2.8 % injected dose/g
same,"Biodistribution, Salivary glands",[2]; [8],5.1 ± 1.7 % injected dose/g
same,"Biodistribution, Spleen",[2]; [8],0.7 ± 0.1 % injected dose/g
same,"Biodistribution, Stomach",[2]; [8],2.2 ± 0.7 % injected dose/g
same,"Biodistribution, Blood","[2]; 4-hr, Blocker None",0.3 ± 0.2 % injected dose/g
same,"Biodistribution, Flu tumor","[2]; 4-hr, Blocker None",0.25 ± 0.1 % injected dose/g
same,"Biodistribution, Kidneys","[2]; 4-hr, Blocker None",9.5 ± 2.5 % injected dose/g
same,"Biodistribution, Lacrimal glands","[2]; 4-hr, Blocker None",0.4 ± 0.2 % injected dose/g
same,"Biodistribution, PIP tumor","[2]; 4-hr, Blocker None",27.4 ± 7.5 % injected dose/g
same,"Biodistribution, Salivary glands","[2]; 4-hr, Blocker None",1.8 ± 0.2 % injected dose/g
same,"Biodistribution, Spleen","[2]; 4-hr, Blocker None",0.6 ± 0.2 % injected dose/g
same,"Biodistribution, Stomach","[2]; 4-hr, Blocker None",0.8 ± 0.5 % injected dose/g
same,"Biodistribution, Blood",[2]; [9],0.02 ± 0.01 % injected dose/g
same,"Biodistribution, Flu tumor",[2]; [9],0.1 ± 0.02 % injected dose/g
same,"Biodistribution, Kidneys",[2]; [9],2.1 ± 0.7 % injected dose/g
same,"Biodistribution, Lacrimal glands",[2]; [9],0.1 ± 0.03 % injected dose/g
same,"Biodistribution, PIP tumor",[2]; [9],24.8 ± 2.0 % injected dose/g
same,"Biodistribution, Salivary glands",[2]; [9],0.08 ± 0.04 % injected dose/g
same,"Biodistribution, Spleen",[2]; [9],0.2 ± 0.1 % injected dose/g
same,"Biodistribution, Stomach",[2]; [9],0.06 ± 0.01 % injected dose/g
same,"Biodistribution, Blood",[2]; [10],0.2 ± 0.01 % injected dose/g
same,"Biodistribution, Flu tumor",[2]; [10],0.1 ± 0.03 % injected dose/g
same,"Biodistribution, Kidneys",[2]; [10],1.4 ± 0.4 % injected dose/g
same,"Biodistribution, Lacrimal glands",[2]; [10],0.1 ± 0.05 % injected dose/g

# — patent US11813340B2, “PSMA targeted radiohalogenated urea-polyaminocarboxylates for cancer radiotherapy” (The Johns Hopkins University, priority 2018, dated 2023)
